Test results as given in publication PMC7497641, “Neurotropic activity and safety of methylene-cycloalkylacetate (MCA) derivative 3-(3-allyl-2-methylenecyclohexyl) propanoic acid” (ACS Chemical Neuroscience, 2020).

Tests used:
[1] = biological target: Cholecystokinin Receptor A (CCKAR) (Homo sapiens, UniProt P32238); test: SAFETYscan GPCR Calcium Flux; assay type: cell-based; settings: read-out: RC50 (the source's name)
[2] = tested on: calcineurin phosphatase; test: PhosphoSens CSox based phosphatase assay; assay type: biochemical; settings: 5 μM HU-MCA-13
Source text: The initial focus was to measure the modulatory activity in vitro of MCA-13 on protein kinases which were reported to be involved in induction of neurite outgrowth.[18],[43] To do this, we took advantage of a powerful method to measure the activity of recombinant protein kinases using a homogeneous and continuous (kinetic) format, where the level of chelation-enhanced fluorescence (CHEF) is directly proportional to the amount of phosphorylated, real-time sensors consisting of sulfonamido-oxine (Sox) chromophore linked to a peptide or protein substrates of selective kinases.[44] […]
Kinase activity was measured continuously using the PhosphoSens®technology (AssayQuant Technologies Inc., Marlborough, MA) according to the manufacturers’ recommendations (http://www.assayquant.com/) . This one-step homogeneous assay use s chelation-enh anced fluorescence via optimized substrate sensors unique for each kinase, containing the unnatural fluorogenic amino-acid Sox. […]
Protein kinase activity was determined in 54 mM HEPES, pH 7.5 1 mM ATP 1.2 mM DTT (none in ASK1) 0.012% Brij-35 1% glycerol 0.2 mg/ml BSA 0.52 mM EGTA (none in assays of CAMK2α, PKCε, PKCι, Calcineurin A/B) 140 µM phosphatidylserine/3.8 µM diacylglycerol (PKCε, PKCι only) 5 ng/µl calmodulin/0.4 mM CaCl2 (CAMK2α, Calcineurin A/B only) 10 mM […]

[3] = biological target: Muscarinic acetylcholine Receptor M3 (CHRM3) (Homo sapiens, UniProt P20309); test: cell-based; settings: Calcium Flux, read-out: RC50 (the source's name)
[4] = tested on: dorsal root ganglion (DRG) sensory neurons; test: DRG neurite outgrowth assay; assay type: cell-based, mice; settings: HU-MCA-13 5 μM, DRG explants, 5 days
Source text: In the second step, we study the effect of HU-MCA-13 on ex-vivo sensory neuronal cultures obtained from dissociated dorsal root ganglia (DRG), a model in which the neurons tend to extend neurites in culture at a high rate, and all neurite outgrowths are axons, as confirmed by immune staining for cytoskeletal-specific proteins.[27] […] By contrast, NGF induced a strong, 3.5-fold increase in neurite outgrowth to a value of 700 μm (Figure 1 and Figure 3B) and a ratio of 8.5 between the area covered by neurites and that covered by the DRG ganglia (Figure 3C). Similarly, HU-MCA-13 induced a 2.5 fold increase in neurite outgrowth to a value of about 500 μm (Figure 1 and Figure 3B) and a ratio of 5.4 between the area covered by neurites and that covered by the DRG ganglia (Figure 3C). […] These experiments extend the neurotropic effect of MCA-13 observed with PC12 dopaminergic neuronal cultures to DRG sensory neurons.
To perform these experiments, 10 DRGs were excised under sterile conditions and transferred to Dulbecco’s Modified Eagle Medium (DMEM) containing 0.25% Type IV collagenase in at 37 °C for 45 min, followed by a 20 min incubation with 0.025% trypsin in DMEM, to digest the associated connective tissue surrounding the neurons. After plating the ganglia onto collagen (50 μg/mL)/laminin mixture (5 μg/mL)-coated tissue culture wells for 24 h, DRG neurons were cultured for additional 1–7 days in fresh Neurobasal A/B27 medium[27] containing either 50 ng/mL NGF (positive control), medium containing 1% DMSO (negative control) or 5 μM MCA-13. The living cultures were photographed and thereafter, the ganglia were immunostained for β tubulin III and again photographed using a fluorescent microscope. A researcher blinded to the experimental conditions performed image analysis, and the neurite outgrowth length (in micrometers) was measured.[50]

[5] = biological target: Kv7.1/KCNE Potassium voltage-gated channel (KvLQT1/minK) (Homo sapiens, UniProt P51787); test: SAFETYscan Ion channel assay; assay type: cell-based; settings: read-out: RC50 (the source's name)

Muscarinic acetylcholine Receptor M3 (CHRM3), sequence (P20309 whole entry): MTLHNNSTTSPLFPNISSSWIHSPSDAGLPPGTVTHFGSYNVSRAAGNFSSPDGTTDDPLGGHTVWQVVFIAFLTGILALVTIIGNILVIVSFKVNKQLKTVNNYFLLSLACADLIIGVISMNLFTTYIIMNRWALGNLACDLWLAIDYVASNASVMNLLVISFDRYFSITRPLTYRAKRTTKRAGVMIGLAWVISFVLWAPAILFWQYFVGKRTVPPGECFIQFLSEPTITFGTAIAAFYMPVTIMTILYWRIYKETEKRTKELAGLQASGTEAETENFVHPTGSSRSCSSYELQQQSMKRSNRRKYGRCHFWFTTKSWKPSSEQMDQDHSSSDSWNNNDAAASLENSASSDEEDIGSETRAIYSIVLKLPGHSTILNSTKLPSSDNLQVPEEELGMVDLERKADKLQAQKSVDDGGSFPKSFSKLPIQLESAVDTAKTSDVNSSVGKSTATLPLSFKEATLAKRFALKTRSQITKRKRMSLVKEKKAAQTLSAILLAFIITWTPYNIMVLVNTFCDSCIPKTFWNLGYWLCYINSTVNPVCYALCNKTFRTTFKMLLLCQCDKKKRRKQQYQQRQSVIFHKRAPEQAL
Cholecystokinin Receptor A (CCKAR), sequence (P32238 whole entry): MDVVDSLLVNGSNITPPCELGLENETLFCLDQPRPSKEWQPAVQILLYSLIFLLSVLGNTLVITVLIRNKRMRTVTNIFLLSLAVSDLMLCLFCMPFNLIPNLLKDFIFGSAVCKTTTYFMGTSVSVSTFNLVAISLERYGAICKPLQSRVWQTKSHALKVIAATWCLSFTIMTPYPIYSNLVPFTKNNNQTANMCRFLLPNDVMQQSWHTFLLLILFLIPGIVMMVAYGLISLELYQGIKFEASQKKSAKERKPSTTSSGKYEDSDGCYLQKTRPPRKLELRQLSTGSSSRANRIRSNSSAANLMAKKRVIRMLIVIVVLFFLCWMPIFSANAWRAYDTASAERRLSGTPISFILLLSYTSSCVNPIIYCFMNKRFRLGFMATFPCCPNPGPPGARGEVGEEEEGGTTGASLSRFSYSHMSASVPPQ

Compound: C=CCC1CCCC(CCC(=O)O)C1=C (stereo not shown) [HU-MCA-13, 3-(3-allyl-2-methylenecyclohexyl)propanoic acid]
- EC50 ([1]; Agonist): > 10 µM
- IC50 ([1]; Antagonist): > 10 µM
- effect on phosphatase activity [2]: no effects
- EC50 ([3]; Agonist): > 10 µM
- IC50 ([3]; Antagonist): > 10 µM
- neurite outgrowth length [4]: about 500 μm
- ratio between the area covered by neurites and that covered by the DRG ganglia [4]: 5.4
- fold increase in neurite outgrowth ([4]; versus control medium): 2.5 fold
- IC50 ([5]; Blocker): > 10 µM
- EC50 ([5]; Opener): > 10 µM
